US20160038468A1 (priority 2013, published 2016)
Where two headings read alike, the source gives them in different places.

Legend:
Assay type in all cases: cell-based
Mobiluncus all species = test: Agar dilution MIC (CLSI), Mobiluncus all species
Prevotella amnii = test: Agar dilution MIC (CLSI), Prevotella amnii vaginal isolates; conditions: for MIC: read-out: Minimal Inhibitory Concentration (MIC)
Prevotella timonensis = test: Agar dilution MIC (CLSI), Prevotella timonensis vaginal isolates; conditions: for MIC: read-out: Minimal Inhibitory Concentration (MIC)
M. curtisii = test: Agar dilution MIC (CLSI), M. curtisii vaginal isolates; conditions: 14 samples
Peptoniphilus harei = test: Agar dilution MIC (CLSI), Peptoniphilus harei vaginal isolates; conditions: for MIC: read-out: Minimal Inhibitory Concentration (MIC)
[1] = tested on: Megasphaera-like bacteria; test: Agar dilution MIC (CLSI), Megasphaera-like bacteria vaginal isolates; conditions: for MIC: read-out: Minimal Inhibitory Concentration (MIC)
Finegoldia magna = test: Agar dilution MIC (CLSI), Finegoldia magna vaginal isolates; conditions: for MIC: read-out: Minimal Inhibitory Concentration (MIC)
[2] = number (%) of isolates, # tested 40
[3] = Hoylesella timonensis, # tested 33
[4] = Peptoniphilus harei, # tested 23
[5] = number (%) of isolates, # tested 20

Cc1ncc([N+](=O)[O-])n1CCO [Metronidazole]
17 (42) μg/ml: Resistant (Mobiluncus all species; number (%) of isolates, # tested 40, resistance: rifaximin >32, metronidazole >32, clindamycin >8 μg/ml)
1 to 4 µg/mL: MIC Range (Peptoniphilus harei; # tested 23)
11: Number of strains with indicated MIC (M. curtisii; MIC >[…])
50.2 µg/mL: MIC ([1]; isolate 602236 E3)
> 128 µg/mL: MIC90 (Mobiluncus all species; # tested 40) | MIC (Prevotella timonensis; Hoylesella timonensis, isolate 601278 12)
0.25 µg/mL: MIC (Prevotella amnii; Prevotella amnii, isolate 601365 6) | MIC ([1]; 427510 h, isolate 427507 H) | MIC50 ([1]; # tested 25) | MIC90 ([1]; # tested 25) | MIC ([1]; isolate 426749 T) | MIC ([1]; isolate 426766 Q) | MIC ([1]; isolate 426788 8a) | MIC ([1]; isolate 426788 C) | MIC ([1]; isolate 427522 8) | MIC ([1]; isolate 600770 O) | MIC ([1]; isolate 600790 N) | MIC ([1]; isolate 600831 9) | MIC ([1]; isolate 600837 18) | MIC ([1]; isolate 600861 P) | MIC ([1]; isolate 602241 D) | MIC ([1]; isolate 602241 F) | MIC ([1]; isolate 602270 A) | MIC ([1]; isolate 602282 I) | MIC ([1]; isolate 602302 22) | MIC ([1]; isolate 602305 I) | MIC ([1]; isolate 602324 8) | MIC ([1]; isolate 602672 12A)
4 µg/mL: MIC (Prevotella timonensis; Hoylesella timonensis, isolate 601214 A) | MIC (Prevotella timonensis; Hoylesella timonensis, isolate 601252 B) | MIC (Prevotella timonensis; Hoylesella timonensis, isolate 601293 13) | MIC (Prevotella timonensis; Hoylesella timonensis, isolate 601367 E) | MIC (Prevotella timonensis; Hoylesella timonensis, isolate 601370 13) | MIC (Prevotella timonensis; Hoylesella timonensis, isolate 601388 S) | MIC (Prevotella timonensis; Hoylesella timonensis, isolate 601411 S) | MIC (Prevotella timonensis; Hoylesella timonensis, isolate 601414 O) | MIC90 (Prevotella timonensis; [3]) | MIC (Peptoniphilus harei; Peptoniphilus harei, isolate 601233V R) | MIC (Finegoldia magna; Finegoldia magna, isolate 601205V 39) | MIC (Finegoldia magna; Finegoldia magna, isolate 601275V c) | MIC (Finegoldia magna; Finegoldia magna, isolate 601315V 17) | MIC (Finegoldia magna; Finegoldia magna, isolate 601315V 17A) | MIC (Finegoldia magna; Finegoldia magna, isolate 601320V 24) | MIC (Finegoldia magna; Finegoldia magna, isolate 601330V c) | MIC (Finegoldia magna; Finegoldia magna, isolate 601340V 27) | MIC (Finegoldia magna; Finegoldia magna, isolate 601359V c) | MIC (Finegoldia magna; Finegoldia magna, isolate 601367V c) | MIC90 (Finegoldia magna; Finegoldia magna, # tested 20)
1 (3) μg/ml: Intermediate (Mobiluncus all species; [2]) | Resistant (Prevotella timonensis; number (%) of isolates, # tested 33, resistance: rifaximin >32, metronidazole >32, clindamycin >8 μg/ml)
0 µg/mL: Intermediate (Finegoldia magna; [5])
8 µg/mL: MIC50 (Mobiluncus all species; # tested 40)
3: Number of strains with indicated MIC (M. curtisii; MIC 64 μg/ml)
substantially less active: activity on Mobiluncus species (Mobiluncus all species)
0.25 to 2 µg/mL: MIC Range (Prevotella amnii; # tested 33)
22 (55) μg/ml: Susceptible (Mobiluncus all species; [2])
20 (100) μg/ml: Susceptible (Finegoldia magna; [5])
0.5 to 4 µg/mL: MIC Range (Finegoldia magna; # tested 20)
0.5 µg/mL: MIC (Prevotella amnii; Prevotella amnii, isolate 601258 25) | MIC (Prevotella amnii; Prevotella amnii, isolate 601266 20) | MIC (Prevotella amnii; Prevotella amnii, isolate 601287 HH) | MIC (Prevotella amnii; Prevotella amnii, isolate 601311 K) | MIC (Prevotella amnii; Prevotella amnii, isolate 601350 A) | MIC (Prevotella amnii; Prevotella amnii, isolate 601368 24) | MIC (Prevotella amnii; Prevotella amnii, isolate 601434 13) | MIC (Finegoldia magna; Finegoldia magna, isolate 301303V D) | MIC (Finegoldia magna; Finegoldia magna, isolate 601323V K)
1 µg/mL: MIC (Prevotella amnii; Prevotella amnii, isolate 601203 4) | MIC (Prevotella amnii; Prevotella amnii, isolate 601256 11) | MIC (Prevotella amnii; Prevotella amnii, isolate 601261 E) | MIC (Prevotella amnii; Prevotella amnii, isolate 601278 10) | MIC (Prevotella amnii; Prevotella amnii, isolate 601291 41) | MIC (Prevotella amnii; Prevotella amnii, isolate 601293 29) | MIC (Prevotella amnii; Prevotella amnii, isolate 601318 G) | MIC (Prevotella amnii; Prevotella amnii, isolate 601336 33) | MIC (Prevotella amnii; Prevotella amnii, isolate 601341 H) | MIC (Prevotella amnii; Prevotella amnii, isolate 601375 L) | MIC (Prevotella amnii; Prevotella amnii, isolate 601377 9) | MIC (Prevotella amnii; Prevotella amnii, isolate 601379 24) | MIC (Prevotella amnii; Prevotella amnii, isolate 601388 G) | MIC (Prevotella amnii; Prevotella amnii, isolate 601399 10) | MIC (Prevotella amnii; Prevotella amnii, isolate 601405 A) | MIC (Prevotella amnii; Prevotella amnii, isolate 601411 L) | MIC (Prevotella amnii; Prevotella amnii, isolate 601413 10) | MIC (Prevotella amnii; Prevotella amnii, isolate 601418 27) | MIC (Prevotella amnii; Prevotella amnii, isolate 601426 A) | MIC (Prevotella amnii; Prevotella amnii, isolate 601430 14) | MIC (Prevotella amnii; Prevotella amnii, isolate 601458 13) | MIC50 (Prevotella amnii; Prevotella amnii, # tested 33) | MIC (Peptoniphilus harei; Peptoniphilus harei, isolate 601098V Q) | MIC (Peptoniphilus harei; Peptoniphilus harei, isolate 601212V 15) | MIC (Peptoniphilus harei; Peptoniphilus harei, isolate 601248V 23) | MIC (Peptoniphilus harei; Peptoniphilus harei, isolate 601293V 21) | MIC (Peptoniphilus harei; Peptoniphilus harei, isolate 601311V R) | MIC (Peptoniphilus harei; Peptoniphilus harei, isolate 601342V F) | MIC (Peptoniphilus harei; Peptoniphilus harei, isolate 601355V D) | MIC (Peptoniphilus harei; Peptoniphilus harei, isolate 601365V 14) | MIC (Peptoniphilus harei; Peptoniphilus harei, isolate 601388V Q) | MIC (Peptoniphilus harei; Peptoniphilus harei, isolate 601399V 16) | MIC (Peptoniphilus harei; Peptoniphilus harei, isolate 601409V L) | MIC (Peptoniphilus harei; Peptoniphilus harei, isolate 601426V D) | MIC (Peptoniphilus harei; Peptoniphilus harei, isolate 601430V 22) | MIC50 (Peptoniphilus harei; [4]) | MIC (Finegoldia magna; Finegoldia magna, isolate 601295V 25) | MIC (Finegoldia magna; Finegoldia magna, isolate 601335V c1) | MIC (Finegoldia magna; Finegoldia magna, isolate 601363V 6)
1: Number of strains with indicated MIC (Prevotella amnii; MIC […], 33 samples) | Number of strains with indicated MIC (Prevotella timonensis; MIC >[…], 33 samples)
2 µg/mL: MIC (Prevotella amnii; Prevotella amnii, isolate 601305 A) | MIC (Prevotella amnii; Prevotella amnii, isolate 601314 19) | MIC (Prevotella amnii; Prevotella amnii, isolate 601340 37) | MIC (Prevotella amnii; Prevotella amnii, isolate 601369 13) | MIC90 (Prevotella amnii; Prevotella amnii, # tested 33) | MIC (Prevotella timonensis; Hoylesella timonensis, isolate 301212 10) | MIC (Prevotella timonensis; Hoylesella timonensis, isolate 601080 5) | MIC (Prevotella timonensis; Hoylesella timonensis, isolate 601088 15) | MIC (Prevotella timonensis; Hoylesella timonensis, isolate 601093 24) | MIC (Prevotella timonensis; Hoylesella timonensis, isolate 601097 S) | MIC (Prevotella timonensis; Hoylesella timonensis, isolate 601098 B) | MIC (Prevotella timonensis; Hoylesella timonensis, isolate 601157 19) | MIC (Prevotella timonensis; Hoylesella timonensis, isolate 601167 13) | MIC (Prevotella timonensis; Hoylesella timonensis, isolate 601170 13) | MIC (Prevotella timonensis; Hoylesella timonensis, isolate 601175 J) | MIC (Prevotella timonensis; Hoylesella timonensis, isolate 601178 19) | MIC (Prevotella timonensis; Hoylesella timonensis, isolate 601194 9B) | MIC (Prevotella timonensis; Hoylesella timonensis, isolate 601226 C) | MIC (Prevotella timonensis; Hoylesella timonensis, isolate 601234 B) | MIC (Prevotella timonensis; Hoylesella timonensis, isolate 601255 17) | MIC (Prevotella timonensis; Hoylesella timonensis, isolate 601266 18) | MIC (Prevotella timonensis; Hoylesella timonensis, isolate 601281 22) | MIC (Prevotella timonensis; Hoylesella timonensis, isolate 601287 H) | MIC (Prevotella timonensis; Hoylesella timonensis, isolate 601401 J) | MIC (Prevotella timonensis; Hoylesella timonensis, isolate 601422 39) | MIC (Prevotella timonensis; Hoylesella timonensis, isolate 601429 11) | MIC (Prevotella timonensis; Hoylesella timonensis, isolate 601459 21) | MIC50 (Prevotella timonensis; [3]) | MIC (Peptoniphilus harei; Peptoniphilus harei, isolate 426868V D) | MIC (Peptoniphilus harei; Peptoniphilus harei, isolate 601203V 8) | MIC (Peptoniphilus harei; Peptoniphilus harei, isolate 601259V 11) | MIC (Peptoniphilus harei; Peptoniphilus harei, isolate 601289V C) | MIC (Peptoniphilus harei; Peptoniphilus harei, isolate 601302V F1) | MIC (Peptoniphilus harei; Peptoniphilus harei, isolate 601326V F) | MIC (Peptoniphilus harei; Peptoniphilus harei, isolate 601374V F) | MIC (Peptoniphilus harei; Peptoniphilus harei, isolate 601413V 16) | MIC (Peptoniphilus harei; Peptoniphilus harei, isolate 601539V 25B) | MIC90 (Peptoniphilus harei; [4]) | MIC (Finegoldia magna; Finegoldia magna, isolate 601214V F) | MIC (Finegoldia magna; Finegoldia magna, isolate 601276V 23) | MIC (Finegoldia magna; Finegoldia magna, isolate 601283V 14) | MIC (Finegoldia magna; Finegoldia magna, isolate 601293V 27) | MIC (Finegoldia magna; Finegoldia magna, isolate 601298V 30) | MIC (Finegoldia magna; Finegoldia magna, isolate 601308V 24) | MIC50 (Finegoldia magna; Finegoldia magna, # tested 20)
